Results from patent US20120129843A1, “PYRIDYL-THIAZOLYL INHIBITORS OF PRO-MATRIX METALLOPROTEINASE ACTIVATION” (priority 2010, published 2012).
Where a name gives a salt, the structure may show the parent alone.

Legend:
[1] = target: T1, proMMP9(67-444;ΔFnII) (SEQ ID NO:5) (Homo sapiens, UniProt P14780, DEL216-390); assay: ThermoFluor binding assay with proMMP9(67-444;ΔFnII)
T1 construct: start methionine (N); made in house; host or cells: E. coli BL21(DE3) RIL
T1 sequence (P14780 with tags, fused parts or gaps DEL216-390): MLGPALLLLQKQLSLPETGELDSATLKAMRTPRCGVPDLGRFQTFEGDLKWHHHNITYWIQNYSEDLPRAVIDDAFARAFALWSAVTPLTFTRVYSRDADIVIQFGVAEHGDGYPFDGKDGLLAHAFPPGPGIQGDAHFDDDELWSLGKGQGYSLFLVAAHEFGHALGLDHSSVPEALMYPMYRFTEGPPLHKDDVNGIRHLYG
Procedure, shortened: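 Thermal shift with 3.5 μM desalted proMMP9(67-444;ΔFnII) and 50 μM 1,8-ANS in 50 mM HEPES pH 7.0, 100 mM NaCl, 0.001% Tween-20, 2.5 mM MgCl2, 300 μM CaCl2; compounds serially diluted. Heated 40–90 °C at 1 °C/min, fluorescence at 500 nm; Tm fit, binding modelled using DSC-derived thermodynamic parameters.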

[2] = target: T2, full-length proMMP9(1-707) (SEQ ID NO:1), activation by catalytic MMP3 (Homo sapiens, UniProt P14780, R574P); assay: proMMP9/MMP3 P126 Activation Assay; assay type: biochemical
T2 construct: made in house; host or cells: HEK293 (proMMP9, secreted); E. coli (MMP3)
Experimental: proMMP9/MMP3 P126 Activation Assay
The reaction volume was 50 μL. […] Reactivity of residual MMP3 towards P-126 substrate was minimal under these conditions.

[3] = target: T3, proMMP13(1-268) (SEQ ID NO:7) (Homo sapiens, UniProt P45452); assay: ThermoFluor binding assay with proMMP13(1-268)
T3 construct: 6xHis (C); made in house; host or cells: HEK293 (transient, secreted)
Experimental: The ThermoFluor® (TF) assay is a 384-well plate-based binding assay that measures thermal stability of proteins (Biomol Screen 2001, 6, 429-40; Biochemistry 2005, 44, 5258-66). The experiments were carried out using instruments available from Johnson & Johnson Pharmaceutical Research & Development, LLC. TF dye used in all experiments was […] (1,8-ANS) (Invitrogen: A-47).
Compounds were arranged in a pre-dispensed plate (Greiner Bio-one: 781280), wherein compounds were serially diluted in 100% DMSO across 11 columns within a series. Columns 12 and 24 were used as DMSO reference and contained no compound. For multiple compound concentration-response experiments, the compound aliquots ([…]) were robotically predispensed directly into black 384-well polypropylene PCR microplates (Abgene: TF-0384/k) using a Cartesian Hummingbird liquid handler (DigiLab, Holliston, Mass.). Following compound dispense, protein and dye solutions were added to achieve the final assay volume of 3 μL. The assay solutions were overlayed with 1 μL of silicone oil (Fluka, type DC 200: 85411) to prevent evaporation.
Assay plates were robotically loaded onto a thermostatically controlled PCR-type thermal block and then heated from 40 to 90° C. at a ramp-rate of 1° C./min for all experiments. Fluorescence was measured by continuous illumination with UV light (Hamamatsu LC6) supplied via fiber optics and filtered through a band-pass filter (380-400 nm; >60D cutoff). Fluorescence emission of the entire 384-well plate was detected by measuring light intensity using a CCD camera (Sensys, Roper Scientific) filtered to detect 500±25 nm, resulting in simultaneous and independent readings of all 384 wells. A single image with 20-sec exposure time was collected at each temperature, and the sum of the pixel intensity in a given area of the assay plate was recorded vs temperature and fit to standard equations to yield the Tm (J Biomol Screen 2001, 6, 429-40).
Thermodynamic parameters necessary for fitting compound binding for each proMMP were estimated by differential scanning calorimetry (DSC) and from ThermoFluor® data. The heat capacity of unfolding for each protein was estimated from the molecular weight and from ThermoFluor® dosing data.
ThermoFluor® with proMMP13(1-268) (SEQ ID NO: 7)
The proMMP13(1-268) (SEQ ID NO:7) protein sample preparations included a desalting buffer exchange step via a PD-10 gravity column (GE Healthcare). The desalting buffer exchange was performed prior to diluting the protein to the final assay concentration of 3.5 μM. The concentration of proMMP13(1-268) (SEQ ID NO:7) was estimated spectrophotometrically based on a calculated extinction coefficient of ε280=37000 M^−1cm^−1, a calculated molecular weight of 30.8 kDa, and calculated pI of 5.33. ThermoFluor® reference conditions were defined as follows: 100 μg/mL proMMP13(1-268) (SEQ ID NO:7), 25 μM 1,8-ANS, pH 7.0 Buffer (50 mM HEPES pH 7.0, 100 mM NaCl, 0.001% Tween-20, 2.5 mM MgCl2, 300 μM CaCl2). The thermodynamic parameters for proMMP13(1-268) (SEQ ID NO:7) are as follows: Tm (° C.)=67 (+/−0.1), ΔUH(Tm) (cal mol^−1)=107000(+/−5000), ΔUS(Tm) (cal mol^−1 K^−1)=318, ΔUCp (cal mol^−1 K^−1)=2600.

[4] = target: T4, proMMP9(20-445;ΔFnII) (SEQ ID NO:6) (Homo sapiens, UniProt P14780, DEL216-390); assay: ThermoFluor binding assay with proMMP9(20-445;ΔFnII)
T4 construct: start methionine (N); made in house; host or cells: E. coli BL21(DE3) RIL
T4 sequence (P14780 with tags, fused parts or gaps DEL216-390): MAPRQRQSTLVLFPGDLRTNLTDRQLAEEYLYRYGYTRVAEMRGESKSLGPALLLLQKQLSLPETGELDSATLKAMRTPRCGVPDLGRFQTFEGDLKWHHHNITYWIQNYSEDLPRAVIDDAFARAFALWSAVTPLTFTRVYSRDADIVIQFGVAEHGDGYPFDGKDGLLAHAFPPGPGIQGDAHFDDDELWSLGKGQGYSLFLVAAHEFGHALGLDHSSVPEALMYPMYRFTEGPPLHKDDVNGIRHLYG
Procedure, shortened: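 Thermal-shift binding using 2.8 μM proMMP9(20-445;ΔFnII) with 50 μM 1,8-ANS in 50 mM HEPES pH 7.0, 100 mM NaCl, 0.001% Tween-20, 2.5 mM MgCl2, 300 μM CaCl2. Compound serially diluted; heated 40–90 °C at 1 °C/min, fluorescence 500 nm. Tm shifts fitted using DSC/ThermoFluor-derived thermodynamic parameters.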

T2 sequence (P14780 20-707 R574P): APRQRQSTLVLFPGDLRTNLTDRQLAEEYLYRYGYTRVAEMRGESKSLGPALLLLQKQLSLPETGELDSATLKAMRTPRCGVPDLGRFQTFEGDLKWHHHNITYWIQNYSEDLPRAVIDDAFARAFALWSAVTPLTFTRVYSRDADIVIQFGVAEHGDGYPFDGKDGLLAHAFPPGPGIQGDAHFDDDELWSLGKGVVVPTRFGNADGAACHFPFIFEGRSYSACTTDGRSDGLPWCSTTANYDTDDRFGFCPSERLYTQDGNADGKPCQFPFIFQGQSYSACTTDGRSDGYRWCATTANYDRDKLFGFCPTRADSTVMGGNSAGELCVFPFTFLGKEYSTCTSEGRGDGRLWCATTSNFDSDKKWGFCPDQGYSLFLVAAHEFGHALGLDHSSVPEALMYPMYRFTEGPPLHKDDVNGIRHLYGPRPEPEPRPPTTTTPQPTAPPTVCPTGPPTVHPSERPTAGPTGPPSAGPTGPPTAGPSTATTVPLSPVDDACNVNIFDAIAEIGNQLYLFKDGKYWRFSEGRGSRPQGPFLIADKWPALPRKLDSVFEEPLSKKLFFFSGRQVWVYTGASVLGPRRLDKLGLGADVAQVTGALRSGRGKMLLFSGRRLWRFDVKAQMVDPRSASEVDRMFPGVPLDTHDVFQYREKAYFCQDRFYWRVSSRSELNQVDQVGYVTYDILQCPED

| Kd [1] | IC50 [2] | Kd [3] | Kd [4] | SMILES |
| --- | --- | --- | --- | --- |
| 1 µM | 0.36 µM | 0.31 µM | 0.16 µM | CC(C)Oc1ccc(C(N)=O)cc1Nc1nc(-c2cccnc2)cs1 [Example 1, 4-Isopropoxy-3-(4-pyridin-3-yl-thiazol-2-ylamino)-benzamide.HBr] |
| 1.5 µM | 0.74 µM | 2.6 µM | 0.73 µM | CCOc1ccc(C(N)=O)cc1Nc1nc(-c2cccnc2)cs1 [Example 2, 4-Ethoxy-3-(4-pyridin-3-yl-thiazol-2-ylamino)-benzamide.TFA] |
| 38 µM | ~5 µM | > 95 µM | 33 µM | Cc1cc2cccc(Nc3nc(-c4cccnc4)cs3)c2o1 [Example 3, (2-Methyl-benzofuran-7-yl)-(4-pyridin-3-yl-thiazol-2-yl)-amine] |
| 3.3 µM | 5 µM | 12 µM | 1.3 µM | COc1ccc(C(N)=O)cc1Nc1nc(-c2cccnc2)cs1 [Example 4, 4-Methoxy-3-(4-pyridin-3-yl-thiazol-2-ylamino)-benzamide.HBr] |
| 33 µM | ~19 µM | > 95 µM | 53 µM | COc1ccc(CC(N)=O)cc1Nc1nc(-c2cccnc2)cs1 [Example 5, 2-[4-Methoxy-3-(4-pyridin-3-yl-thiazol-2-ylamino)-phenyl]-acetamide] |
| 43 µM | 2.6 µM | 18 µM | 7.4 µM | COc1ccc(C#N)cc1Nc1nc(-c2cccnc2)cs1 [Example 9, 4-Methoxy-3-(4-pyridin-3-yl-thiazol-2-ylamino)-benzonitrile.HBr] |
| 29 µM | > 20 µM | > 95 µM | 17 µM | COc1ccc(S(N)(=O)=O)cc1Nc1nc(-c2cccnc2)cs1 [Example 12, 4-Methoxy-3-(4-pyridin-3-yl-thiazol-2-ylamino)-benzenesulfonamide.TFA] |
| 10 µM | 2.4 µM | 1.2 µM | 2.3 µM | CC(C)Oc1ccc(S(N)(=O)=O)cc1Nc1nc(-c2cccnc2)cs1 [Example 13, 4-Isopropoxy-3-(4-pyridin-3-yl-thiazol-2-ylamino)-benzenesulfonamide.TFA] |
| 1.9 µM | 0.5 µM | 0.93 µM | 0.21 µM | CC(C)Oc1ccc(C(N)=O)cc1Nc1nc(-c2ccccn2)cs1 [Example 14, 4-Isopropoxy-3-(4-pyridin-2-yl-thiazol-2-ylamino)-benzamide] |
| 0.47 µM | 0.28 µM | 0.73 µM | 0.25 µM | CC(C)Oc1ccc(C(N)=O)cc1Nc1nc(-c2ccncc2)cs1 [Example 15, 4-Isopropoxy-3-(4-pyridin-4-yl-thiazol-2-ylamino)-benzamide.HBr] |
| 5.7 µM | 4.3 µM | 1.5 µM | 3.6 µM | CC(C)Oc1ccc(C(=O)O)cc1Nc1nc(-c2cccnc2)cs1 [Example 17, 4-Isopropoxy-3-(4-pyridin-3-yl-thiazol-2-ylamino)-benzoic acid.TFA] |
| 0.66 µM | 0.67 µM | 3.3 µM | 26 µM | CCOc1ccc(-c2ncco2)cc1Nc1nc(-c2cccnc2)cs1 [Example 18, (2-Ethoxy-5-oxazol-2-yl-phenyl)-(4-pyridin-3-yl-thiazol-2-yl)-amine.HBr] |
| 14 µM | ~4 µM | 6.2 µM | 27 µM | Cc1cc(C)c(-c2csc(Nc3cc(C(N)=O)ccc3OC(C)C)n2)c(C)n1 [Example 19, 4-Isopropoxy-3-[4-(2,4,6-trimethyl-pyridin-3-yl)-thiazol-2-ylamino]-benzamide.TFA] |
| 3.3 µM | 0.64 µM | 0.23 µM | 0.34 µM | CC(C)Oc1ccc(C(N)=O)cc1Nc1nc(-c2ccc(Br)nc2)cs1 [Example 20, 4-Isopropoxy-3-[4-(6-bromo-pyridin-3-yl)-thiazol-2-ylamino]-benzamide.TFA] |
| 4.1 µM | 0.6 µM | 1.4 µM | 0.21 µM | CC(C)Oc1ccc(C(N)=O)cc1Nc1nc(-c2ccnc(Cl)c2)cs1 [Example 21, 3-[4-(2-Chloro-pyridin-4-yl)-thiazol-2-ylamino]-4-isopropoxy-benzamide.TFA] |
| 5.7 µM | 4.6 µM | 2.9 µM | 1.3 µM | CC(C)Oc1ccc(C(N)=O)cc1Nc1nc(-c2cncc(Br)c2)cs1 [Example 22, 3-[4-(5-Bromo-pyridin-3-yl)-thiazol-2-ylamino]-4-isopropoxy-benzamide.TFA] |
| 18 µM | ~14 µM | 12 µM | 11 µM | CC(C)Oc1ccc(C(N)=O)cc1Nc1nc(-c2cnccc2C(C)C)cs1 [Example 23, 4-Isopropoxy-3-[4-(4-isopropyl-pyridin-3-yl)-thiazol-2-ylamino]-benzamide.TFA] |
| > 95 µM | ~3 µM | 3.7 µM | 2.2 µM | Cc1nc(C(F)(F)F)ccc1-c1csc(Nc2cc(C(N)=O)ccc2OC(C)C)n1 [Example 24, 4-Isopropoxy-3-[4-(2-methyl-6-trifluoromethyl-pyridin-3-yl)-thiazol-2-ylamino]-benzamide.TFA] |
| 2 µM | 0.46 µM | 1.8 µM | 0.17 µM | COc1ccc(-c2csc(Nc3cc(C(N)=O)ccc3OC(C)C)n2)cn1 [Example 25, 4-Isopropoxy-3-[4-(6-methoxy-pyridin-3-yl)-thiazol-2-ylamino]-benzamide.TFA] |
| – | > 20 µM | > 95 µM | 36 µM | NS(=O)(=O)c1ccc(OC(F)(F)F)c(Nc2nc(-c3cccnc3)cs2)c1 [Example 59, 3-(4-Pyridin-3-yl-thiazol-2-ylamino)-4-trifluoromethoxy-benzenesulfonamide] |
